Data on four compounds can be found in article PMC6010047, “Design, synthesis and biological evaluation of novel hydroxy-phenyl-1H-benzimidazoles as radical scavengers and UV-protective agents” (Journal of Enzyme Inhibition and Medicinal Chemistry, 2017).

The nature of series [1]: 1,1-Diphenyl-2-picryl-hydrazyl radical (DPPH) assay. It is filed as biochemical. The note with it: Trolox equivalents; mean ± SE of three experiments. The method, then:
To 1.5 mL DPPH methanolic solution (0.5 mM) was added 0.750 mL of sample solution proper diluted. Samples absorbance measurements were evaluated with a UV-VIS spectrophotometer (Thermo Spectronic Helios γ, Cambridge, UK) at fixed wavelength of 517 nm. Blank sample was prepared adding methanol to DPPH solution and Trolox was used as standard reference to achieve a calibration curve. The radical-scavenging activity is expressed as inhibition ratio of initial concentration of DPPH radical and is calculated according to the formula: Inhibition percentage (Ip) = [(AB-As)/AB]·100; where AB and As are, respectively, the absorbance values of blank reaction and of the tested sample[25].
In general terms: DPPH is a stable violet radical that fades when it is reduced.

Series [2] can be described thus: Ferric reducing antioxidant of potency (FRAP) assay. The note with it: Trolox equivalents; mean ± SE of three experiments. It is filed as biochemical. The method, then:
The ferric reducing ability of each standard solution was measured according to a modified protocol described by Guihua et al.[26]. The reagent for analysis was freshly prepared by mixing the following solutions in the reported ratio 10/1/1 (v:v:v) (i) 0.1 M acetate buffer pH 3.6, (ii) TPTZ (2,4,6-Tri(2-pyridyl)-s-triazine) 10 mmol/L in 40 mmol/HCl, (iii) ferric chloride 20 mmol/L. To a 1.9 mL of reagent were added 0.1 mL of sample proper diluted or solvent when blank was performed. Readings at fixed wavelength of the absorption maximum (593 nm) were done after 30 min, using a UV-VIS spectrophotometer; it was evaluated the absorbance increase of sample solution against the absorbance of blank reaction as parameter to calculate the antioxidant activity. The antioxidant activity is given as Trolox activity since this standard was used to perform the calibration curves.

Series [3] in a line: UV spectra: λmax and molar extinction coefficient. It is filed as physicochemical. The note with it: for λ max: aqueous solution at pH 7; for ɛ (molar extinction coefficient): aqueous solution at pH 7, at λ max, linear regression Lambert–Beer. The method, then:
Sun protection factor (SPF) is related to the UV absorption of the substances, so before including the molecules in cosmetic formulations we evaluated the wavelength of maximum absorption (λmax) and the molar extinction coefficient (ɛ) of each molecule in aqueous solution at pH 7. The UV spectra were recorded between 270 and 420 nm (20 nm higher and lower then UVA and UVB range) to verify the spectrum profile of the molecules within UVA and UVB region. UV spectrum of PBSA is an UVB filter and presents a λmax of 302 nm; after this peak, the absorbance fades going to higher wavelength until almost zero around 325 nm, and then, it provides no absorption in the UVA region. Molecules spectra overlapped for category according to the substituent in position 5 of the benzimidazole ring are shown in Figures 1, 2 and 3; PBSA spectrum is presented in all figures for comparison.
From the spectra appears that the lambda maxima (Table 2) of the new molecules shifted toward higher wavelength and in general the range of absorption curve was wider than PBSA. Within a group of molecules, the batochromic shift was more marked for the molecules that have a hydroxyl moiety in position 2 of the phenyl ring (4, 5, 6, 9, 10, 11, 13 and […]); the effect of ortho substituted is known to produce this shift toward higher wavelength. Increasing the number of auxochrome groups on phenyl ring an increment in the absorption range occurred, compounds with three hydroxyl on the phenyl ring (6, 11, 15) had the broadest spectrum and their lambda maxima shifted at the highest wavelength compared to the other compounds. The absorption spectrum of molecules with the same number and position of hydroxyl seemed only slightly influenced by the substituent in position 5 of the benzimidazole ring. After having established the lambda maxima for every compound, solutions at different concentrations were prepared to calculate the molar extinction coefficient by means of linear regression and applying Lambert–Beer equation (Table 2).

Series [4] is described as follows: In vitro evaluation of filtering parameters of formulations on PMMA plates (Diffey and Robson). The note with it: for SPF / UVA/UVB / UVAPF / λc (critical wavelength): 3% (w/w) in O/W formulation, PMMA plates. From the text:
It was decided to use a standard formulation oil in water (O/W).
In vitro approaches consist in applying a thin film of sunscreen product on an artificial substrate and test, via spectrophotometric measures, the amount of UV radiation passing through the film. Several different artificial substrates are available for this type of analysis; the substrate should be as closed as possible to the physical characteristics of the skin. Among the substrates available for these purposes, the substrate used in this study to analyse the sunscreen products were PMMA plates. This substrate is easily handled and can be supplied with a reproducible roughness. WW5 PMMA plates have been purchased from Schonberg GmbH (Munich, Germany). The plates, used in this study, have an area of 25 cm^2 and standardized […] roughness. Transmittance and absorbance measurements were carried out by a SHIMAZDU UV-2600 provided of integrating sphere ISR 2600 60 mm and coupled with a SPF determination software and a PMMA plate with approximately 15 μL of glycerin served as reference.
In order to evaluate possible activity as sun filters and antioxidants, suitable in the development of novel class of dualistic sunscreens, the synthesized molecules were included at the concentration of 3% (w/w) in a topical formulation. To this end standard oil in water (O/W) formulation was devised, taking into account the absence of any UV filtering and/or antioxidant molecule, in order to obtain a reference formulation. It was not possible to analyze compound 7 in the formulation because of high instability (phase separation induced by 7). Formulations containing the active ingredients were tested for their SPF efficacy by the in vitro method derived from Diffey and Robson[32], in comparison with the same formulation containing the reference PBSA.
This method is based on the measure of spectral transmission of ultraviolet radiation, with and without the sunscreen applied, through an irregular substrate that simulates the skin surface and permits transmission of UV radiation. Although with some limitation, the test is used to predict SPF in vivo and to screen the filtering activity of new molecules that cannot be tested by in vivo because of lacking of more data concerning safety. The critical wavelength (λc) for the test product is defined as that wavelength where the area under the absorbance spectrum for the irradiated product from 290 nm to λc is 90% of the integral of the absorbance spectrum from 290 nm to 400 nm. Critical wavelength value of greater than 370 nm is necessary, in order to satisfy requirements for broad-spectrum UVB/UVA protection and associated labeling. Polymethylmethacrylate plates (PMMA) with a specific roughness were a satisfactory substrate for this method, because they are UV-transparent, nonfluorescent, photostable and inert to all potential sunscreen formulation ingredients. Table 3 lists the data obtained for the model formulation containing the synthesized compounds. These parameters are necessary to evaluate whether a sunscreen fulfills the requirements for efficacy, and they are SPF, UVA protection factor (UVAPF), UVA/UVB ratio and critical wavelength.
A set of model formulations was prepared: an oil-in-water emulsion (O/W), without sunscreen molecules (Ref. A, Figure 5), prepared as reference formulation; two formulations containing PBSA or oxisol (12) at 3% were prepared (Ref. C and B, respectively, Figure 5), in order to evaluate the filter properties of oxisol (12). Moreover, as stated earlier, SPF booster properties were assayed on other four formulations including a mix of filters with a theoretical SPF value of 15 and 30, adding 3% of oxisol (12) or PBSA (Ref. E, F, G, H, Figure 5). […]

`O=C(O)c1ccc2[nH]c(-c3ccc(O)c(O)c3)nc2c1` [Compound 12, 2-(3,4-Dihydroxy-phenyl)-1H-benzimidazole-5-carboxylic acid]: the DPPH in series [1] is listed as 1771.82 ± 84.75 μmolTrolox/mmol. Moreover, the FRAP in series [2] turned out to be 2433.28 ± 21.74 μmolTrolox/mmol. Besides, in series [3], the λ max stood at 317 nm and the “ɛ (molar extinction coefficient)” value is on record as 21 000. In addition, in series [4], the SPF is 2.21 ± 0.17, the UVA/UVB came to 1.00 ± 0.04, the UVAPF worked out at 1.88 ± 0.12 and the “λc (critical wavelength)” value amounted to 370 nm. Also, the “SPF of emulsion (Figure 5)” value in series [4] (O/W emulsion with 3% of the molecule only) is given as “does not present an appreciable value of SPF”.

As for `O=C(O)c1ccc2[nH]c(-c3ccc(O)cc3O)nc2c1` [Compound 13, 2-(2,4-Dihydroxy-phenyl)-1H-benzimidazole-5-carboxylic acid], in series [1], the DPPH turned out to be 32.48 ± 2.38 μmolTrolox/mmol. Moreover, the FRAP in series [2] was determined as 31.63 ± 1.96 μmolTrolox/mmol. In addition, in series [3], the λ max is 321 nm and the “ɛ (molar extinction coefficient)” value was 20 000. Also, in series [4], the SPF is on record as 2.85 ± 0.17, the UVA/UVB is on record as 1.27 ± 0.02, the UVAPF turned out to be 1.58 ± 0.10 and the “λc (critical wavelength)” value is 368 nm.

For `O=C(O)c1ccc2[nH]c(-c3ccc(O)cc3)nc2c1` [Compound 14, 2-(4-Hydroxy-phenyl)-1H-benzimidazole-5-carboxylic acid], in series [1], the DPPH turned out to be 1.185 ± 0.02 μmolTrolox/mmol. Also, the FRAP in series [2] is 2.62 ± 0.06 μmolTrolox/mmol. In addition, in series [3], the λ max amounted to 312 nm and the “ɛ (molar extinction coefficient)” value is recorded as 24 000. Also, in series [4], the SPF came to 6.01 ± 0.31, the UVA/UVB is listed as 0.70 ± 0.05, the UVAPF is recorded as 2.04 ± 0.11 and the “λc (critical wavelength)” value is 350 nm.

Turning to `O=C(O)c1ccc2[nH]c(-c3ccc(O)c(O)c3O)nc2c1` [Compound 15, 2-(2,3,4-Trihydroxy-phenyl)-1H-benzimidazole-5-carboxylic acid], the DPPH in series [1] came to 1241.03 ± 9.43 μmolTrolox/mmol. Further, in series [2], the FRAP amounted to 2355.15 ± 52.55 μmolTrolox/mmol. In addition, in series [3], the λ max is given as 332 nm and the “ɛ (molar extinction coefficient)” value was 17 000. Moreover, in series [4], the SPF is on record as 3.69 ± 0.24, the UVA/UVB stood at 0.96 ± 0.08, the UVAPF is recorded as 1.87 ± 0.08 and the “λc (critical wavelength)” value is given as 382 nm.
